Here are results for ten compounds from the NIST ThermoML archive (doi:10.1016/j.fluid.2017.03.015).

Numbers after ± are expanded uncertainties.

The conditions of this series: Crystal; visual observation.
Take `CCCC[P+](CCCC)(CCCC)CCCC.[Cl-]` [tetrabutylphosphonium chloride]: the Normal melting temperature was determined as 66.31 ± 0.41 °C.
Then `CCC(=O)[O-].C[N+](C)(C)CCO` [cholinium propanoate], with 9.42 ± 0.41 °C; and `CCCCCCCCC(C[N+](C)(C)Cc1ccccc1)C(C)O.[Cl-]` (stereo not given) [benzyldimethyl-2-(1-hydroxyethyl)decylammonium chloride], with 78.27 ± 0.41 °C.
The same measure for `CCCC[N+](CCCC)(CCCC)CCCC.[Cl-]` [tetrabutylammonium chloride]: 69.67 ± 0.41 °C; for `CCn1cc[n+](C)c1.[Cl-]` [1-ethyl-3-methylimidazolium chloride]: 77.27 ± 0.41 °C.
Then `CCCC[N+]1(C)CCCC1.[Cl-]` [1-butyl-1-methylpyrrolidinium chloride], with 199.83 ± 0.41 °C; and `CC(=O)[O-].C[N+](C)(C)CCO` [choline acetate], with 89.47 ± 0.41 °C; and `C[N+](C)(C)CCO.O=S(=O)([N-]S(=O)(=O)C(F)(F)F)C(F)(F)F` [choline bis(trifluoromethylsulfonyl)imide], with 32.50 ± 0.41 °C.
In the case of `CCCC(=O)[O-].C[N+](C)(C)CCO` [choline butanoate], the Normal melting temperature came to 42.83 ± 0.41 °C.
As for `C[n+]1ccn(CCO)c1.[Cl-]` [1-(2-hydroxyethyl)-3-methyl-1H-imidazolium chloride], the Normal melting temperature came to 85.73 ± 0.41 °C.
